{"source": "patent US9447157B2", "about": "“Nitration shielding peptides and methods of use thereof” (Augusta University Research Institute, Inc., priority 2013, dated 2016)", "key": {"[1]": {"system": "Pulmonary artery smooth muscle cells (PASMC)", "assay": "PASMC cellular metabolism (alamarBlue assay)", "format": "cell-based, lamb", "conditions": "SIN-1 500 μM 48 h", "procedure": "This was determined via the alamarBlue assay (AbD Serotec, Oxford, UK). The assay is based on the reducing ability of metabolically active cells to convert the active reagent, resazurin, into a fluorescent and colorimetric indicator, resorufin. When added to cell cultures, the oxidized, resazurin enters the cytosol and is converted to the reduced, resorufin in the mitochondria by accepting electrons from NADH, NADPH, FADH2, FMNH2, as well as from the cytochromes. The non-toxic and cell permeable nature of alamarBlue permits the long-term exposure of cells. PASMC were grown on a 10 cm dish to 75% confluence, transfected with WT-PKG-1α or Y247F-PKG-1α cDNA, and incubated at 37° C. for 20 h. The cells were trypsinized and seeded onto a 24-well plate at a density of 20,000 cells per well and grown for an additional 4 h in serum and phenol free DMEM growth medium containing 1% FBS and antibiotics. The cells were then treated with or without SIN-1 (500 μM, 48 h) in the presence of 10% well volume of alamarBlue dye. The color change of the dye was determined at an excitation wavelength of 560 nm and an emission wavelength of 590 nm in a Fluoroskan Ascent plate reader. […] Cellular metabolism was expressed as follows: […]"}, "[2]": {"system": "Pulmonary artery smooth muscle cells (PASMC)", "assay": "PASMC phenotype markers (Western blot, immunocytochemistry)", "format": "cell-based, lamb", "conditions": "SIN-1 500 μM 48 h", "procedure": "Cells were prepared as previously described (Sud, N., et al., American Journal of Physiology 293, L1444-1453 (2007); Sharma, S., et al., American Journal of Physiology 294, L46-56 (2008)). Briefly, the cellular protein extracts were prepared by homogenizing the cells in lysis buffer (50 mM Tris-HCl, pH 7.6, 0.5% Triton X-100, and 20% glycerol) containing Halt protease inhibitor cocktail (Pierce, Rockford, Ill.). The extracts were then clarified by centrifugation (20,000 g for 20 min at 4° C.). The supernatant fractions were assayed for protein concentration using the Bio-Rad DC Protein Assay (Bio-Rad Laboratories, Hercules, Calif.) and used for Western blot analysis. Similarly, peripheral lung tissue from the control lambs and the lambs with pulmonary hypertension secondary to increased pulmonary blood flow (shunt) was prepared as described earlier (Aggarwal, S., et al., Journal of Cellular Physiology (2011)). Cell extracts ([…]) were resolved using 4-20% Tris-SDS-Hepes PAGE, electrophoretically transferred to Immuno-Blot™ PVDF membrane (Bio-Rad Laboratories, Hercules, Calif.), and then blocked with 5% nonfat dry milk in Tris buffered saline. The membranes were then probed with antibodies against PKG-1α (1:500 dilution), anti-nitrotyrosine 247-PKG-1α (1:500), Calponin-1 (1:500 dilution), Vimentin (1:500 dilution), or MYH (1:500 dilution). Reactive bands were visualized using chemi-luminescence (Pierce Laboratories, Rockford, Ill.) on a Kodak 440CF image station. The band intensity was quantified using Kodak 1D image processing software. The protein expression was normalized by re-probing with anti β-actin (1:2000).\nSemi-confluent PASMC grown on a coverslip in a 6-well plate were transfected with a mammalian expression plasmid containing either a wild-type (WT)- or Y247F-PKG-1α cDNA. After 20 h, the cells were serum starved (1% FBS) for 4 h then exposed or not to SIN-1 (500 μM) for 48 h. The cells were washed with PBS, methanol fixed (5 min), and permeabilized in 0.1% PBS-Tween (20 min). […] The cells were rinsed 3× with PBS, and the coverslips were mounted on the slides with ProLong Gold Antifade and analyzed with the use of a Nikon Eclipse TE 300 inverted fluorescent microscope with a 60× oil objective and a Hamamatsu digital camera.\nTo assess the effect of nitration on pulmonary arterial smooth muscle cell (PASMC) phenotype, PASMC were transiently transfected with expression plasmids containing WT-PKG-1α, Y247F-PKG-1α, or PDEST40 (as a control) for 20 h. Cells were then exposed or not to SIN-1 (500 μM, 48 h) and the effect on synthetic and contractile markers determined. The levels of myosin heavy chain (MYH, FIG. 18A), Calponin-1 (FIG. 18B), and Vimentin (FIG. 18C) were determined. […]"}}, "data": [{"substance": "3-morpholinosydnonimine N-ethylcarbamide [SIN-1]", "values": [{"measurement": "Metabolism, WT-PKG-1α transfected PASMC", "setting": "[1]", "result": "stimulated"}, {"measurement": "PCNA staining", "setting": "[2]; WT-PKG-1α expressing PASMC", "result": "increased"}, {"measurement": "SM-22α expression", "setting": "[2]; WT-PKG-1α expressing PASMC", "result": "attenuated"}, {"measurement": "Expression of contractile markers MYH and Calponin-1", "setting": "[2]; WT-PKG-1α transfected PASMC", "result": "decreased"}, {"measurement": "Expression of proliferative marker Vimentin", "setting": "[2]; WT-PKG-1α transfected PASMC", "result": "increased"}]}]}
